Where a name gives a salt, the structure may show the parent alone. Read-outs that look alike come from different tables or passages of the source.
Assays:
[1] = molecular target: CDK2/Cyclin A (Homo sapiens, UniProt P24941); experiment: Inhibition of CDK2/Cyclin A Retinoblastoma Kinase Activity; type: biochemical; settings: for Ki: apparent Ki, CDK2/proteolyzed cyclin A, Rb fragment substrate, 25 μM ATP; for CDK2 % Inhibition At 0.03 μM: Table 2
Summary of the method: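 Baculovirus-expressed CDK2 complexed with proteolyzed cyclin A (10 or 19 nM), Rb fragment substrate, 25 μM [32P/33P]ATP, HEPES pH 7.4, 30 °C for 60 or 75 min under initial-rate conditions. Filter capture and phosphorimager readout; apparent Ki fitted to competitive or tight-binding competitive inhibition.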

[2] = tested on: HCT-116 cell line; experiment: Inhibition of cell growth, tetrazolium salt (MTT) assay; type: cell-based; settings: for IC50: Homo sapiens, HCT-116, 120 h, MTT, three to five days, read-out: HCT-116 IC50; for HCT-116 % Inhibition at 0.25 μM: 0.25 μM compound
Summary of the method: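 HCT-116 cells in McCoy's 5A medium received compound 4 h after plating (0.5% v/v DMSO) and were incubated three to five days at 37° C, 5% CO2. MTT (0.2 mg/mL final) then added for 4 h; DMSO-solubilized formazan read at 540 nm against 0.5% DMSO-treated controls.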

[3] = molecular target: human CDK4 and genetically truncated (1-264) cyclin D3 (Homo sapiens, UniProt P11802); experiment: Inhibition of CDK4/Cyclin D Retinoblastoma Kinase Activity; type: biochemical; settings: for Ki: apparent Ki, CDK4/truncated cyclin D3, Rb fragment substrate, 25 μM ATP
Summary of the method: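 Human CDK4/truncated cyclin D3 (1-264) complex from baculovirus-infected insect cells, 5 nM, phosphorylating Rb fragment (residues 386-928, His-tagged) with 25 μM [32/33P]ATP in HEPES pH 7.4, MgCl2, 2% DMSO at 30° C. for 20 min (60 min for tight binders). Filter-captured radioactivity by phosphorimager; apparent Ki from competitive or tight-binding fits.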

[4] = 0.1 μM compound, HCT-116, Table 3
[5] = 0.1 μM compound, HCT-116, Table 4

human CDK4 and genetically truncated (1-264) cyclin D3, sequence (P11802 whole entry, the tested form may be a part): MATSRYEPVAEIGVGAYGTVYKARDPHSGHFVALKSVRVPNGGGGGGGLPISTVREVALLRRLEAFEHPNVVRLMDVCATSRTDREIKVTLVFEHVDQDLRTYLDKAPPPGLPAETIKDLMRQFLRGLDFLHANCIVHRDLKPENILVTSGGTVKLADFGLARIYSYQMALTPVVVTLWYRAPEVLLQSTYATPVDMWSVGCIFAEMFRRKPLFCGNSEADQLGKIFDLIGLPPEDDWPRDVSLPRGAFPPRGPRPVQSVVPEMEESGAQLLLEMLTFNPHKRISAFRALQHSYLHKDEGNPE
human CDK4 and genetically truncated (1-264) cyclin D3, sequence (P30281 1-264 partner): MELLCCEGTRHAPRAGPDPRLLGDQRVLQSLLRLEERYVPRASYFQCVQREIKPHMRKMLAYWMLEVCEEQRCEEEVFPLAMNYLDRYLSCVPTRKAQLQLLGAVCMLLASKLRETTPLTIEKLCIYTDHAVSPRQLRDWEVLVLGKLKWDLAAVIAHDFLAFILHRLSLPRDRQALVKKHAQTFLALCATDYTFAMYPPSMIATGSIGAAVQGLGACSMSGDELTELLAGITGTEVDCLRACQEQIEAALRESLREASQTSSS

In the case of `Nc1nc(NC2CCN(S(=O)(=O)c3ccc(-c4c[nH]cn4)cc3)CC2)sc1C(=O)c1c(F)cccc1F` [Example F30, 1-(4-Amino-2-{1-[4-(1H-imidazol-4-y)-benzenesulfonyl]-piperidin-4-ylamino}-thiazol-5-yl)-1-(2,6-difluoro-phenyl)-methanone Trifluoroacetic Acid Salt], the Ki [1] is reported as 0.25 nM, the IC50 ([2]; first HCT-116 column (c4)) is reported as 170 nM and the IC50 ([2]; second HCT-116 column (c5)) is reported as 1700 nM. It also gave a Ki [3] of 0.32 nM.
`C[C@@H]1CN(CCCS(=O)(=O)N2CCC(Nc3nc(N)c(C(=O)c4c(F)cccc4F)s3)CC2)C[C@H](C)N1` [Example K1, 1-(4-Amino-2-{1-[3-(3,5-cis-dimethylpiperazin-1-yl)-propane-1-sulfonyl]-piperidin-4-ylamino}-thiazol-5-yl)-1-(2,6-difluoro-phenyl)-methanone] showed a Ki [1] of 7.8 nM, an IC50 ([2]; first HCT-116 column (c4)) greater than 5000 nM and an IC50 ([2]; second HCT-116 column (c5)) greater than 5000 nM. It also gave a Ki [3] of 2 nM.
`Nc1nc(NC2CCN(C(=O)NC3CCCCC3)CC2)sc1C(=O)c1c(F)cccc1F` [Example O34] was tested, and the “CDK2 % Inhibition At 0.03 μM” value ([1]; 0.03 μM compound) was 30%, the “HCT-116 % Inhibition at 0.25 μM” value ([2]; HCT-116, Table 2) was 22% and the “CDK4 % Inhibition at 0.03 μM” value ([3]; 0.03 μM compound, Table 2) was 6%.
For `Cc1cc(C)cc(NC(=O)N2CCC(Nc3nc(N)c(C(=O)c4c(F)cccc4F)s3)CC2)c1` [Example O49], the “CDK2 % Inhibition At 0.03 μM” value ([1]; 0.03 μM compound) was 33%, the “HCT-116 % Inhibition at 0.25 μM” value ([2]; HCT-116, Table 2) was 20% and the “CDK4 % Inhibition at 0.03 μM” value ([3]; 0.03 μM compound, Table 2) was −1%.
Compound `N#Cc1ccc(S(=O)(=O)N2CCC(Nc3nc(N)c(C(=O)c4c(F)cccc4F)s3)CC2)cc1` [Example F18, 4-{4-[4-Amino-5-(2,6-difluoro-benzoyl)-thiazol-2-ylamino]-piperidine-1-sulfonyl}benzonitrile] has a Ki [1] of less than 1 nM, an IC50 ([2]; first HCT-116 column (c4)) of 300 nM and an IC50 ([2]; second HCT-116 column (c5)) of 500 nM. For the same compound, the Ki [3] was 0.98 nM.
In the case of `Nc1nc(NC2CCN(S(=O)(=O)CCCN3CC=CCC3)CC2)sc1C(=O)c1c(F)cccc1F` [Example K11, 1-(4-Amino-2-{1-[3-(3,6-dihydro-2H-pyridin-1-yl)propane-1-sulfonyl]-piperidin-4-ylamino}-thiazol-5-yl)-1-(2,6-difluoro-phenyl)-methanone.], the Ki [1] is reported as 2.9 nM, the IC50 ([2]; first HCT-116 column (c4)) is reported as 130 nM and the IC50 ([2]; second HCT-116 column (c5)) is reported as 1300 nM. For the same compound, the Ki [3] was 1.8 nM.
`Cc1c(S(=O)(=O)N2CCC(Nc3nc(N)c(C(=O)c4c(F)cccc4F)s3)CC2)sc2ccc(Cl)cc12` [Example P69] was tested, and the “CDK2 % Inhibition at 0.03 μM” value ([1]; 0.03 μM compound, Table 3) was −2%, the “HCT-116 % Inhibition at 0.1 μM” value [2, 4] was 13% and the “HCT-116 % Inhibition at 0.25 μM” value ([2]; HCT-116, Table 3) was 30%. The “CDK4 % Inhibition at 0.03 μM” value ([3]; 0.03 μM compound, Table 3) was 21%.
`CS(=O)(=O)c1ccc(S(=O)(=O)N2CCC(Nc3nc(N)c(C(=O)c4c(F)cccc4F)s3)CC2)cc1` [Example P80] was tested, and the “CDK2 % Inhibition at 0.03 μM” value ([1]; 0.03 μM compound, Table 3) was 81%, the “HCT-116 % Inhibition at 0.1 μM” value [2, 4] was 15% and the “HCT-116 % Inhibition at 0.25 μM” value ([2]; HCT-116, Table 3) was 29%. The “CDK4 % Inhibition at 0.03 μM” value ([3]; 0.03 μM compound, Table 3) was 73%.
For `Nc1ccc(S(=O)(=O)N2CCC(Nc3nc(N)c(C(=O)c4c(F)cccc4F)s3)CC2)cn1` [Example G8, 1-{4-Amino-2-[1-(6-amino-pyridine-3-sulfonyl)-piperidin-4-ylamino]-thiazol-5-yl}-1-(2,6-difluoro-phenyl)-methanone], the Ki [1] was 0.6 nM, the IC50 ([2]; first HCT-116 column (c4)) was 590 nM and the IC50 ([2]; second HCT-116 column (c5)) was 2200 nM. For the same compound, the Ki [3] was 1.9 nM.
Work on `C[C@@H]1CN(c2ccc(S(=O)(=O)N3CCC(Nc4nc(N)c(C(=O)c5c(F)cccc5F)s4)CC3)cc2)C[C@H](C)N1` [Example G29, 1-(4-Amino-2-{1-[4-(3R,5S-dimethyl-piperazin-1-yl)-benzenesulfonyl]-piperidin-4-ylamino}-thiazol-5-yl)-1-(2,6-difluoro-phenyl)-methanone] yielded a Ki [1] of 0.72 nM, an IC50 ([2]; first HCT-116 column (c4)) of 45 nM and an IC50 ([2]; second HCT-116 column (c5)) of 250 nM. It also gave a Ki [3] of 0.61 nM.
With `COc1ccc(C=CC(=O)N2CCC(Nc3nc(N)c(C(=O)c4c(F)cccc4F)s3)CC2)c(Cl)c1OC` [Example R61] the “CDK2 % Inhibition at 0.03 μM” value ([1]; at 0.03 μM) was 63%, the “HCT-116 % Inhibition at 0.1 μM” value ([2]; HCT-116 cells, at 0.1 μM) was 0% and the “HCT-116 5 Inhibition at 0.25 μM” value ([2]; HCT-116 cells) was 37. The “CDK4 % Inhibition at 0.03 μM” value ([3]; at 0.03 μM) was 59%.
In the case of `Nc1nc(NC2CCN(C(=O)c3ccc(F)c(Cl)c3)CC2)sc1C(=O)c1c(F)cccc1F` [Example D8, 1-(4-Amino-2-{1-[1-(3-chloro-4-fluoro-phenyl)-methanoyl]-piperidin-4-ylamino}-thiazol-5-yl)-1-(2,6-difluoro-phenyl)-methanone], the Ki [1] is reported as 99 nM, the IC50 ([2]; first HCT-116 column (c4)) is reported as 97 nM and the IC50 ([2]; second HCT-116 column (c5)) is reported as 250 nM. The Ki [3] was 9.6 nM.
With `Nc1nc(NC2CCN(C(=O)c3sccc3Cl)CC2)sc1C(=O)c1c(F)cccc1F` [Example C8, {4-Amino-2-[1-(3-chloro-thiophene-2-carbonyl)-piperidin-4-ylamino]-thiazol-5-yl}-(2,6-difluoro-phenyl)-methanone] the Ki [1] was 45 nM, the IC50 ([2]; first HCT-116 column (c4)) was 460 nM and the IC50 ([2]; second HCT-116 column (c5)) was 1300 nM. It also gave a Ki [3] of 41 nM.
With `CC(=O)Oc1ccccc1C(=O)N1CCC(Nc2nc(N)c(C(=O)c3c(F)cccc3F)s2)CC1` [Example Q14] the “CDK2 % Inhibition at 0.03 μM” value ([1]; 0.03 μM compound, Table 4) was 59%, the “HCT-116 % Inhibition at 0.1 μM” value [2, 5] was 15% and the “HCT-116 % Inhibition at 0.25 μM” value ([2]; HCT-116, Table 4) was 45%. For the same compound, the “CDK4 % Inhibition at 0.03 μM” value ([3]; 0.03 μM compound, Table 4) was 80%.
`CCCc1ccccc1NC(=O)N1CCC(Nc2nc(N)c(C(=O)c3c(F)cccc3F)s2)CC1` [Example O81] was tested, and the “CDK2 % Inhibition At 0.03 μM” value ([1]; 0.03 μM compound) was 25%, the “HCT-116 % Inhibition at 0.25 μM” value ([2]; HCT-116, Table 2) was 44% and the “CDK4 % Inhibition at 0.03 μM” value ([3]; 0.03 μM compound, Table 2) was −4%.
For `COc1ccc(C(=O)N2CCC(Nc3nc(N)c(C(=O)c4c(F)cccc4F)s3)CC2)cc1` [Example R148], the “CDK2 % Inhibition at 0.03 μM” value ([1]; at 0.03 μM) was 20%, the “HCT-116 % Inhibition at 0.1 μM” value ([2]; HCT-116 cells, at 0.1 μM) was 0% and the “HCT-116 5 Inhibition at 0.25 μM” value ([2]; HCT-116 cells) was 42. For the same compound, the “CDK4 % Inhibition at 0.03 μM” value ([3]; at 0.03 μM) was 49%.
With `COc1ccc(CCC(=O)N2CCC(Nc3nc(N)c(C(=O)c4c(F)cccc4F)s3)CC2)cc1` [Example R176] the “CDK2 % Inhibition at 0.03 μM” value ([1]; at 0.03 μM) was 2%, the “HCT-116 % Inhibition at 0.1 μM” value ([2]; HCT-116 cells, at 0.1 μM) was 1% and the “HCT-116 5 Inhibition at 0.25 μM” value ([2]; HCT-116 cells) was 43. For the same compound, the “CDK4 % Inhibition at 0.03 μM” value ([3]; at 0.03 μM) was 4%.
With `COC(=O)C(=O)N1CCC(Nc2nc(N)c(C(=O)c3c(F)cccc3F)s2)CC1` [Example Q38] the “CDK2 % Inhibition at 0.03 μM” value ([1]; 0.03 μM compound, Table 4) was −12%, the “HCT-116 % Inhibition at 0.1 μM” value [2, 5] was 0% and the “HCT-116 % Inhibition at 0.25 μM” value ([2]; HCT-116, Table 4) was 21%. For the same compound, the “CDK4 % Inhibition at 0.03 μM” value ([3]; 0.03 μM compound, Table 4) was 16%.
In the case of `Nc1nc(NC2CCN(S(=O)(=O)CCNCc3cccc(F)c3F)CC2)sc1C(=O)c1c(F)cccc1F` [Example K45, (4-Amino-2-{1-[2-(2,3-difluoro-benzylamino)-ethanesulfonyl]-piperidin-4-ylamino}-thiazol-5-yl)-(2,6-difluoro-phenyl)-methanone], the Ki [1] is reported as 0.82 nM, the IC50 ([2]; first HCT-116 column (c4)) is reported as 50 nM and the IC50 ([2]; second HCT-116 column (c5)) is reported as 170 nM. The Ki [3] was 1 nM.
With `Nc1nc(NC2CCN(C(=O)c3ccc4ccccc4c3)CC2)sc1C(=O)c1c(F)cccc1F` [Example Q63] the “CDK2 % Inhibition at 0.03 μM” value ([1]; 0.03 μM compound, Table 4) was 39%, the “HCT-116 % Inhibition at 0.1 μM” value [2, 5] was 5% and the “HCT-116 % Inhibition at 0.25 μM” value ([2]; HCT-116, Table 4) was 25%. For the same compound, the “CDK4 % Inhibition at 0.03 μM” value ([3]; 0.03 μM compound, Table 4) was 57%.
With `Nc1nc(NC2CCN(C(=O)c3cccc([N+](=O)[O-])c3)CC2)sc1C(=O)c1c(F)cccc1F` [Example Q69] the “CDK2 % Inhibition at 0.03 μM” value ([1]; 0.03 μM compound, Table 4) was 54%, the “HCT-116 % Inhibition at 0.1 μM” value [2, 5] was 1% and the “HCT-116 % Inhibition at 0.25 μM” value ([2]; HCT-116, Table 4) was 24%. The “CDK4 % Inhibition at 0.03 μM” value ([3]; 0.03 μM compound, Table 4) was 80%.
Work on `CCCN(CCCS(=O)(=O)N1CCC(Nc2nc(N)c(C(=O)c3c(F)cccc3F)s2)CC1)CC1CC1` [Example K6, 1-(4-Amino-2-{1-[3-(cyclopropylmethyl-propyl-amino)propane-1-sulfonyl]-piperidin-4-ylamino}-thiazol-5-yl)-1-(2,6-difluoro-phenyl)-methanone.] yielded a Ki [1] of 5.8 nM, an IC50 ([2]; first HCT-116 column (c4)) of 180 nM and an IC50 ([2]; second HCT-116 column (c5)) of 800 nM. It also gave a Ki [3] of 1.5 nM.
With `CC1(C)CN=C(c2ccc(S(=O)(=O)N3CCC(Nc4nc(N)c(C(=O)c5c(F)cccc5F)s4)CC3)cc2)N1` [Example J2, 1-(4-Amino-2-{1-[4-(5,5-dimethyl-4,5-dihydro-1H-imidazol-2-yl)-benzenesulfonyl]-piperidin-4-ylamino}-thiazol-5-yl)-1-(2,6-difluoro-phenyl)-methanone] the Ki [1] was less than 1 nM, the IC50 ([2]; first HCT-116 column (c4)) was 500 nM and the IC50 ([2]; second HCT-116 column (c5)) was 1800 nM. The Ki [3] was 0.18 nM.

From patent US20050101595A1, “N-containing cycloalkyl-substituted amino-thiazole derivatives and pharmaceutical compositions for inhibiting cell proliferation and methods for their use” (PFIZER INC., priority 2003, published 2005)
